Laboratory results published in the NIST ThermoML archive (doi:10.1021/je400250u).
Numbers after ± are expanded uncertainties.

Assay: xn = mol fraction of the nth substance listed
Conditions: 298.15 K; 100 kPa; Liquid; Capillary tube (Ostwald / Ubbelohde) method; x2 = 0

Compared with CCCCCCCCCC [decane] + C1CC[C@H]2CCCC[C@H]2C1, CCCCCCCCCCC [undecane] + C1CC[C@H]2CCCC[C@@H]2C1 is higher in viscosity: 0.852 ± 0.012 mPa·s for the first, 1.086 ± 0.014 mPa·s for the second.

First: CCCCCCCCC [nonane] + C1CC[C@H]2CCCC[C@@H]2C1
Second: CCCCCCCCCCC [undecane] + C1CC[C@H]2CCCC[C@H]2C1
The viscosity of the first is lower: 0.681 ± 0.011 mPa·s for the first, 1.086 ± 0.014 mPa·s for the second.

Work on CCCCCCCCC [nonane] + C1CC[C@H]2CCCC[C@H]2C1 yielded a viscosity of 0.681 ± 0.011 mPa·s.

Same assay, conditions: 298.15 K; 100 kPa; Liquid; Vibrating tube method; x2 = 0

Compared with CCCCCCCCCC [decane] + C1CC[C@H]2CCCC[C@@H]2C1, CCCCCCCCCCC [undecane] + C1CC[C@H]2CCCC[C@@H]2C1 is higher in mass density: 727.43 ± 0.23 kg/m3 for the first, 736.63 ± 0.32 kg/m3 for the second.

First: CCCCCCCCCC [decane] + C1CC[C@H]2CCCC[C@H]2C1
Second: CCCCCCCCCCC [undecane] + C1CC[C@H]2CCCC[C@H]2C1
The mass density of the first is lower: 727.43 ± 0.23 kg/m3 for the first, 736.63 ± 0.32 kg/m3 for the second.

CCCCCCCCC [nonane] + C1CC[C@H]2CCCC[C@@H]2C1 gave a mass density of 714.11 ± 0.24 kg/m3.
CCCCCCCCC [nonane] + C1CC[C@H]2CCCC[C@H]2C1 gave a mass density of 714.11 ± 0.24 kg/m3.

Same assay, conditions: 303.15 K; 100 kPa; Liquid; Capillary tube (Ostwald / Ubbelohde) method; x2 = 0

First: CCCCCCCCCC [decane] + C1CC[C@H]2CCCC[C@@H]2C1
Second: CCCCCCCCCCC [undecane] + C1CC[C@H]2CCCC[C@@H]2C1
The viscosity of the first is lower: 0.799 ± 0.012 mPa·s for the first, 1.004 ± 0.013 mPa·s for the second.

Compared with CCCCCCCCCC [decane] + C1CC[C@H]2CCCC[C@H]2C1, CCCCCCCCCCC [undecane] + C1CC[C@H]2CCCC[C@H]2C1 is higher in viscosity: 0.799 ± 0.012 mPa·s for the first, 1.004 ± 0.013 mPa·s for the second.

With CCCCCCCCC [nonane] + C1CC[C@H]2CCCC[C@@H]2C1 the viscosity was 0.64 ± 0.011 mPa·s.
Work on CCCCCCCCC [nonane] + C1CC[C@H]2CCCC[C@H]2C1 yielded a viscosity of 0.64 ± 0.011 mPa·s.

Same assay, conditions: 303.15 K; 100 kPa; Liquid; Vibrating tube method; x2 = 0

Going from CCCCCCCCCC [decane] + C1CC[C@H]2CCCC[C@@H]2C1 to CCCCCCCCCCC [undecane] + C1CC[C@H]2CCCC[C@@H]2C1, the mass density rises from 723.64 ± 0.23 kg/m3 to 732.93 ± 0.32 kg/m3.

Compared with CCCCCCCCCC [decane] + C1CC[C@H]2CCCC[C@H]2C1, CCCCCCCCCCC [undecane] + C1CC[C@H]2CCCC[C@H]2C1 is higher in mass density: 723.64 ± 0.23 kg/m3 for the first, 732.93 ± 0.32 kg/m3 for the second.

CCCCCCCCC [nonane] + C1CC[C@H]2CCCC[C@@H]2C1 gave a mass density of 710.2 ± 0.24 kg/m3.
Compound CCCCCCCCC [nonane] + C1CC[C@H]2CCCC[C@H]2C1 has a mass density of 710.2 ± 0.24 kg/m3.

Same assay, conditions: 308.15 K; 100 kPa; Liquid; Capillary tube (Ostwald / Ubbelohde) method; x2 = 0

Going from CCCCCCCCCC [decane] + C1CC[C@H]2CCCC[C@@H]2C1 to CCCCCCCCCCC [undecane] + C1CC[C@H]2CCCC[C@@H]2C1, the viscosity rises from 0.751 ± 0.011 mPa·s to 0.931 ± 0.013 mPa·s.

Compared with CCCCCCCCCC [decane] + C1CC[C@H]2CCCC[C@H]2C1, CCCCCCCCCCC [undecane] + C1CC[C@H]2CCCC[C@H]2C1 is higher in viscosity: 0.751 ± 0.011 mPa·s for the first, 0.931 ± 0.013 mPa·s for the second.

Work on CCCCCCCCC [nonane] + C1CC[C@H]2CCCC[C@@H]2C1 yielded a viscosity of 0.604 ± 0.011 mPa·s.
In the case of CCCCCCCCC [nonane] + C1CC[C@H]2CCCC[C@H]2C1, the viscosity is reported as 0.604 ± 0.011 mPa·s.

Same assay, conditions: 308.15 K; 100 kPa; Liquid; Vibrating tube method; x2 = 0

Compared with CCCCCCCCCC [decane] + C1CC[C@H]2CCCC[C@@H]2C1, CCCCCCCCCCC [undecane] + C1CC[C@H]2CCCC[C@@H]2C1 is higher in mass density: 719.84 ± 0.23 kg/m3 for the first, 729.22 ± 0.32 kg/m3 for the second.

Going from CCCCCCCCCC [decane] + C1CC[C@H]2CCCC[C@H]2C1 to CCCCCCCCCCC [undecane] + C1CC[C@H]2CCCC[C@H]2C1, the mass density rises from 719.84 ± 0.23 kg/m3 to 729.22 ± 0.32 kg/m3.

For CCCCCCCCC [nonane] + C1CC[C@H]2CCCC[C@@H]2C1, the mass density was 706.29 ± 0.25 kg/m3.
Compound CCCCCCCCC [nonane] + C1CC[C@H]2CCCC[C@H]2C1 has a mass density of 706.29 ± 0.25 kg/m3.

Same assay, conditions: 313.15 K; 100 kPa; Liquid; Capillary tube (Ostwald / Ubbelohde) method; x2 = 0

Compared with CCCCCCCCCC [decane] + C1CC[C@H]2CCCC[C@@H]2C1, CCCCCCCCCCC [undecane] + C1CC[C@H]2CCCC[C@@H]2C1 is higher in viscosity: 0.709 ± 0.011 mPa·s for the first, 0.862 ± 0.013 mPa·s for the second.

Compared with CCCCCCCCCC [decane] + C1CC[C@H]2CCCC[C@H]2C1, CCCCCCCCCCC [undecane] + C1CC[C@H]2CCCC[C@H]2C1 is higher in viscosity: 0.709 ± 0.011 mPa·s for the first, 0.862 ± 0.013 mPa·s for the second.

With CCCCCCCCC [nonane] + C1CC[C@H]2CCCC[C@@H]2C1 the viscosity was 0.571 ± 0.011 mPa·s.
With CCCCCCCCC [nonane] + C1CC[C@H]2CCCC[C@H]2C1 the viscosity was 0.571 ± 0.011 mPa·s.

Same assay, conditions: 313.15 K; 100 kPa; Liquid; Vibrating tube method; x2 = 0

First: CCCCCCCCCC [decane] + C1CC[C@H]2CCCC[C@@H]2C1
Second: CCCCCCCCCCC [undecane] + C1CC[C@H]2CCCC[C@@H]2C1
The mass density of the first is lower: 716.03 ± 0.23 kg/m3 for the first, 725.51 ± 0.32 kg/m3 for the second.

Compared with CCCCCCCCCC [decane] + C1CC[C@H]2CCCC[C@H]2C1, CCCCCCCCCCC [undecane] + C1CC[C@H]2CCCC[C@H]2C1 is higher in mass density: 716.03 ± 0.23 kg/m3 for the first, 725.51 ± 0.32 kg/m3 for the second.

In the case of CCCCCCCCC [nonane] + C1CC[C@H]2CCCC[C@@H]2C1, the mass density is reported as 702.35 ± 0.25 kg/m3.
For CCCCCCCCC [nonane] + C1CC[C@H]2CCCC[C@H]2C1, the mass density was 702.35 ± 0.25 kg/m3.
